Results taken from patent publication US20120276012A1, “Method of Treatment and Screening Method” (ISIS INNOVATION LIMITED, priority 2009, published 2012).
Changes are numbered by the printed parent chain.

Assays:
[1] = target: T1, creatine transporter (CrT) (Homo sapiens, UniProt P48029); experiment: 14C-labelled creatine uptake in fibroblast 3T3 cells that stably express the CrT; format: cell-based; details: 3T3 cells stably expressing CrT; increasing extracellular β-GPA concentration; 14C-creatine, 37° C. for 60 min; FIG. 5B
T1 construct: expressed in transfected cells
T1 sequence (P48029 1-635): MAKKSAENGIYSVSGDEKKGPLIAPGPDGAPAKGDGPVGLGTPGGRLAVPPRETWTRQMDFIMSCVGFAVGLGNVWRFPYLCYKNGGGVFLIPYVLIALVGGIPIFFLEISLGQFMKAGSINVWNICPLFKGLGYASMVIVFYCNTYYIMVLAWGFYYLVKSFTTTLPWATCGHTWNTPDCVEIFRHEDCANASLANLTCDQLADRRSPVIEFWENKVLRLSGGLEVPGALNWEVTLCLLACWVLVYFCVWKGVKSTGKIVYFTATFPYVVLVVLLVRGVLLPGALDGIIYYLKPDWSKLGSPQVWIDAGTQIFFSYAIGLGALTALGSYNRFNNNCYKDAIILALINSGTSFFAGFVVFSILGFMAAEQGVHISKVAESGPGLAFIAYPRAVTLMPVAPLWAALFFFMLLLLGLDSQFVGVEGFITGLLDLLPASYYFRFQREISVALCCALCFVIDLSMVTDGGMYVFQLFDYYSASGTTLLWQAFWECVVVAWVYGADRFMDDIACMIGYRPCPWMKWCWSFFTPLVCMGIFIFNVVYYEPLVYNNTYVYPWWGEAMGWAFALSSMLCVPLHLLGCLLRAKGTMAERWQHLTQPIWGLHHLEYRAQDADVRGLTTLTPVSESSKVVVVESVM
Procedure: We have developed a sensitive and specific assay for measuring ^14C-labelled Cr uptake in cell culture using fibroblast 3T3 cells that stably express the CrT. Cells (1×10^5 cells) were plated into 24-well-plates, and incubated for 18 hours to form monolayers. […] After incubation at 37° C. for 60 min (95% air, 5% CO2), media was aspirated, cells solubilised and lysed using PBS/TritonX-100. A scintillation counter measures signal attributed to intracellular radiolabel, with Cr uptake estimated against known standards. Control wells contain no test compound to measure normal background uptake, and control wells containing only cells are used for protein quantification.

[2] = target: T2, creatine transporter (CrT) (Mus musculus, UniProt Q8VBW1); experiment: 14C-labelled creatine uptake in HL-1 cells expressing endogenous CrT; format: cell-based; details: HL1 cells incubated with 250 μM creatine; increasing extracellular β-GPA concentration; FIG. 5B
T2 construct: these cells express endogenous CrT; endogenous in cells; host or cells: HL-1 cells (mouse atrial cardiomyocyte-like)
T2 sequence (Q8VBW1 1-635): T1 sequence (P48029 1-635) with A24V, P25S, V38A, T42A, G223T, A368T, V539I
Procedure: Cells (1×10^5 cells) were plated into 24-well-plates, and incubated for 18 hours to form monolayers. Each well was spiked with 10 μl (37 kBq) ^14C-creatine, 500 μM of non-radiolabelled Cr, and 30 μM of test compound (β-guanidinopropionic acid) (performed in triplicate). After incubation at 37° C. for 60 min (95% air, 5% CO2), media was aspirated, cells solubilised and lysed using PBS/TritonX-100. A scintillation counter measures signal attributed to intracellular radiolabel, with Cr uptake estimated against known standards. Control wells contain no test compound to measure normal background uptake, and control wells containing only cells are used for protein quantification. […] HL-1 cells that are derived from mouse atrial tumour cells and have a beating cardiomyocyte-like phenotype. […] Changes in creatine uptake were measured using the ^14C screen described above.

With `N=C(N)NCCC(=O)O` [β-GPA, β-guanidinopropionic acid] the creatine uptake [1] was “dose-dependent inhibition of creatine uptake” and the creatine uptake [2] was “dose-dependent inhibition of creatine uptake”.
